In patent US12319664B2, “Herbicidally active 3-phenylisoxazoline-5-carboxamides of cyclopentenylcarboxylic acid derivatives” (Bayer Aktiengesellschaft, priority 2018, dated 2025):

Columns and labels:
[1] = test system: MATIN; test: Post-emergence herbicidal action against MATIN; assay type: in vivo, Matricaria inodora; conditions: application rate 80 g/ha, rated visually about 3 weeks after treatment
Method: [table] 2. Post-emergence herbicidal action against harmful plants and crop plant compatibility Seeds of monocotyledonous and dicotyledonous weeds and crop plants are placed in sandy loam in plastic or wood-fibre pots, covered with soil and cultivated in a greenhouse under controlled growth conditions. 2 to 3 weeks after sowing, the test plants are treated at the one-leaf stage. The compounds of the invention, formulated in the form of wettable powders (WP) or as emulsion concentrates (EC), are then sprayed onto the green parts of the plants as aqueous suspension or emulsion with addition of 0.5% additive at a water application rate of 600 l/ha (converted). After the test plants have been kept in the greenhouse under optimum growth conditions for about 3 weeks, the activity of the preparations is rated visually in comparison to untreated controls. For example, 100% activity=the plants have died, 0% activity=like control plants.

[2] = test system: ABUTH; test: Post-emergence herbicidal action against ABUTH; assay type: in vivo, Abutilon theophrasti; conditions: application rate 80 g/ha, rated visually about 3 weeks after treatment
Summary of the method: (§1)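 One-leaf-stage plants (2–3 weeks after sowing in sandy loam) received a foliar spray of WP- or EC-formulated compound in water with 0.5% additive at 600 l/ha. Plants stayed under optimum greenhouse conditions for about 3 weeks before visual scoring against controls.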

[3] = test system: LOLRI; test: Post-emergence herbicidal action against LOLRI; assay type: in vivo, Lolium rigidum; conditions: application rate 80 g/ha, rated visually after about 3 weeks
Summary of the method: as §1

[4] = test system: HORMU; test: Post-emergence herbicidal action against HORMU; assay type: in vivo, Hordeum murinum; conditions: application rate 80 g/ha
Summary of the method: as §1

[5] = test system: VERPE; test: Post-emergence herbicidal action against VERPE; assay type: in vivo, Veronica persica; conditions: application rate 80 g/ha
Summary of the method: as §1

[6] = test system: ALOMY; test: Post-emergence herbicidal action against ALOMY; assay type: in vivo, Alopecurus myosuroides; conditions: application rate 80 g/ha, rated visually after about 3 weeks
Summary of the method: as §1

[7] = test system: STEME; test: Post-emergence herbicidal action against STEME; assay type: in vivo, Stellaria media; conditions: application rate 80 g/ha, rated visually about 3 weeks after treatment
Summary of the method: as §1

[8] = test system: AVEFA; test: Post-emergence herbicidal action against AVEFA; assay type: in vivo, Avena fatua; conditions: application rate 80 g/ha, rated visually after about 3 weeks
Summary of the method: as §1

[9] = test system: ECHCG; test: Post-emergence herbicidal action against ECHCG; assay type: in vivo, Echinochloa crus-galli; conditions: application rate 80 g/ha, rated visually after about 3 weeks
Summary of the method: as §1

[10] = test system: SETVI; test: Post-emergence herbicidal action against SETVI; assay type: in vivo, Setaria viridis; conditions: application rate 80 g/ha, rated visually after about 3 weeks
Summary of the method: as §1

[11] = test system: AMARE; test: Post-emergence herbicidal action against AMARE; assay type: in vivo, Amaranthus retroflexus; conditions: application rate 80 g/ha, rated visually about 3 weeks after treatment
Summary of the method: as §1

[12] = test system: PHBPU; test: Post-emergence herbicidal action against PHBPU; assay type: in vivo, Pharbitis purpurea; conditions: application rate 80 g/ha, rated visually about 3 weeks after treatment
Summary of the method: as §1

[13] = test system: POLCO; test: Post-emergence herbicidal action against POLCO; assay type: in vivo, Polygonum convolvulus; conditions: application rate 80 g/ha, rated visually about 3 weeks after treatment
Summary of the method: as §1

[14] = test system: VIOTR; test: Post-emergence herbicidal action against VIOTR; assay type: in vivo, Viola tricolor; conditions: application rate 80 g/ha, rated visually about 3 weeks after treatment
Summary of the method: as §1

SMILES | Herbicidal action against [%] MATIN [1] | Herbicidal action against [%] ABUTH [2] | Herbicidal action against [%] LOLRI [3] | Herbicidal action against [%] HORMU [4] | Herbicidal action against [%] VERPE [5] | Herbicidal action against [%] ALOMY [6] | Herbicidal action against [%] STEME [7] | Herbicidal action against [%] AVEFA [8] | Herbicidal action against [%] ECHCG [9] | Herbicidal action against [%] SETVI [10] | Herbicidal action against [%] AMARE [11] | Herbicidal action against [%] PHBPU [12] | Herbicidal action against [%] POLCO [13] | Herbicidal action against [%] VIOTR [14]
O=C(OCCCl)C1C=CC(NC(=O)C2(C(F)(F)F)CC(c3cc(Cl)cc(Cl)c3)=NO2)C1 (mixture of isomers) [Example I-040] | 80% | 80% | 90% | 90% | 80% | 90% | 90% | 90% | 90% | – | – | – | – | –
O=C(OCC(F)(F)F)C1C=CC(NC(=O)C2(C(F)(F)F)CC(c3cc(Cl)cc(Cl)c3)=NO2)C1 (mixture of isomers) [Example I-041] | 80% | 80% | 80% | 90% | – | – | 80% | 90% | 80% | – | – | – | – | –
CCOC(=O)C1C=CC(NC(=O)C2(C(F)(F)F)CC(c3cccc(Cl)c3)=NO2)C1 (mixture of isomers) [Example I-042] | 80% | 80% | 100% | 90% | 80% | 100% | 90% | 100% | 90% | 80% | – | – | – | –
COC(=O)C1C=CC(NC(=O)C2(C(F)(F)F)CC(c3cccc(Cl)c3)=NO2)C1 (mixture of isomers) [Example I-046] | 80% | 90% | 100% | 100% | 80% | 90% | 90% | 90% | 90% | 80% | 80% | – | – | –
CCOC(=O)C1C=CC(NC(=O)C2(C(F)(F)F)CC(c3cc(C)cc(C)c3)=NO2)C1 (mixture of isomers) [Example I-053] | 80% | – | 90% | – | 80% | 90% | 90% | 90% | – | – | – | 80% | – | –
CCOC(=O)C1C=CC(NC(=O)C2(C)CC(c3cc(F)cc(F)c3)=NO2)C1 (mixture of isomers) [Example I-059] | 90% | – | 100% | 90% | 80% | 90% | 90% | 100% | 100% | 90% | 80% | 80% | 80% | –
C=CC1(C(=O)NC2C=CC(C(=O)O)C2)CC(c2cc(F)cc(F)c2)=NO1 (stereo not shown) [Example I-011] | 80% | – | 90% | 80% | 80% | 90% | 90% | 90% | 90% | 80% | – | – | 80% | –
C=CC1(C(=O)N[C@H]2C=C[C@@H](C(=O)OCCOC)C2)CC(c2cc(F)cc(F)c2)=NO1 (stereo partly shown) [Example I-018] | 80% | 90% | 100% | 90% | 90% | 100% | – | 100% | 100% | 90% | 90% | – | 100% | –
Cc1cc(F)cc(C2=NOC(C(=O)N[C@H]3C=C[C@@H](C(=O)OCCCl)C3)(C(F)(F)F)C2)c1 (stereo partly shown) [Example I-031] | 80% | – | 100% | 90% | 80% | 90% | – | 90% | 80% | 90% | 90% | 80% | 90% | –
COCCOC(=O)C1C=CC(NC(=O)C2(C(F)(F)F)CC(c3cc(F)cc(C#N)c3)=NO2)C1 (stereo not shown) [Example I-100] | – | 80% | 90% | 90% | 90% | 100% | 90% | 100% | 90% | 80% | 80% | 80% | 90% | 80%
CCOC(=O)C1C=CC(NC(=O)C2(C#N)CC(c3cc(F)cc(F)c3)=NO2)C1 (stereo not shown) [Example I-104] | 80% | – | 90% | 90% | 80% | 90% | 80% | 80% | 80% | – | 80% | – | 90% | –
CCOC(=O)C1=CC[C@H](NC(=O)C2(C)CC(c3cc(F)cc(F)c3)=NO2)C1 (stereo partly shown) [III-07] | – | 80% | 90% | 80% | 90% | 90% | 90% | 90% | 90% | 90% | 90% | 80% | 80% | 90%
C=CC1(C(=O)N[C@H]2CC=C(C(=O)OC)C2)CC(c2cc(F)cc(F)c2)=NO1 (stereo partly shown) [III-08] | – | 80% | 90% | 100% | 90% | 90% | 90% | 100% | 90% | 90% | 80% | 80% | 80% | 80%
C=CC1(C(=O)N[C@H]2CC=C(C(=O)O)C2)CC(c2cc(F)cc(F)c2)=NO1 (stereo partly shown) [III-09] | – | 80% | 100% | 100% | 90% | 90% | 90% | 100% | 90% | 80% | 90% | 90% | 90% | 90%
C=CC1(C(=O)N[C@H]2CC=C(C(=O)OCC)C2)CC(c2cc(F)cc(F)c2)=NO1 (stereo partly shown) [III-17] | – | 80% | 90% | 90% | 90% | 100% | 90% | 90% | 80% | 80% | 90% | 90% | 80% | 80%
